Assay [1] addresses T1, BRG-1 (Homo sapiens, UniProt P51532).
T1 construct: made in house; host or cells: High Five insect cells
The experiment in a line: ATPase catalytic activity assay (ADP-Glo), BRG-1. In kind it is biochemical. Conditions: 30 nM BRG-1, 400 μM ATP; for IC50: 20 nM salmon sperm DNA, read-out: BRG1 IP50 (μM)*; for Emax: read-out: BRG1 Max % Inhibition. How it is done:
(§1) The ATPase catalytic activity of BRM or BRG-1 was measured by the in vitro biochemical assay using ADP-Glo™ (Promega, V9102). The ADP-Glo™ kinase assay is performed in two steps once the reaction is complete. The first step is to deplete any unconsumed ATP in the reaction. The second step is to convert the reaction product ADP to ATP, which will be utilized by the luciferase to generate luminesce and be detected by a luminescence reader, such as Envision.
(§2) The assay reaction mixture (10 μL) contains 30 nM of BRM or BRG-1, 20 nM salmon sperm DNA (from Invitrogen, UltraPure™ Salmon Sperm DNA Solution, cat #15632011), and 400 μM of ATP in the ATPase assay buffer, which comprises of 20 mM Tris, pH 8, 20 mM MgCl2, 50 mM NaCl, 0.1% Tween-20, and 1 mM fresh DTT (Pierce™ DTT (Dithiothreitol), cat #20290). The reaction is initiated by the addition of the 2.5 μL ATPase solution to 2.5 μL ATP/DNA solution on low volume white Proxiplate-384 plus plate (PerkinElmer,cat #6008280) and incubates at room temperature for 1 hour. Then following addition of 5 μL of ADP-Glo™ Reagent provided in the kit, the reaction incubates at room temperature for 40 minutes. Then 10 μL of Kinase Detection Reagent provided in the kit is added to convert ADP to ATP, and the reaction incubates at room temperature for 60 minutes. Finally, luminescence measurement is collected with a plate-reading luminometer, such as Envision.
(§3) The ADP-Glo™ kinase assay is performed in two steps once the reaction is complete. The first step is to deplete any unconsumed ATP in the reaction. The second step is to convert the reaction product ADP to ATP, which will be utilized by the luciferase to generate luminesce and be detected by a luminescence reader, such as Envision.
as §2, with “BRG1,” for “BRG-1,”
(In general: In ADP-Glo the light output rises with the ADP produced.)

Assay [2] addresses T2, BRM (Homo sapiens, UniProt P51531).
T2 construct: made in house; host or cells: High Five insect cells
Kind of assay: ATPase catalytic activity assay (ADP-Glo), BRM. In kind it is biochemical. As to conditions: 30 nM BRM, 400 μM ATP; for IC50: 20 nM salmon sperm DNA, read-out: BRM IP50 (μM)*. How it is done: as §1, §2, §3
as §2, with “BRG1,” for “BRG-1,”

T2 sequence (P51531 whole entry): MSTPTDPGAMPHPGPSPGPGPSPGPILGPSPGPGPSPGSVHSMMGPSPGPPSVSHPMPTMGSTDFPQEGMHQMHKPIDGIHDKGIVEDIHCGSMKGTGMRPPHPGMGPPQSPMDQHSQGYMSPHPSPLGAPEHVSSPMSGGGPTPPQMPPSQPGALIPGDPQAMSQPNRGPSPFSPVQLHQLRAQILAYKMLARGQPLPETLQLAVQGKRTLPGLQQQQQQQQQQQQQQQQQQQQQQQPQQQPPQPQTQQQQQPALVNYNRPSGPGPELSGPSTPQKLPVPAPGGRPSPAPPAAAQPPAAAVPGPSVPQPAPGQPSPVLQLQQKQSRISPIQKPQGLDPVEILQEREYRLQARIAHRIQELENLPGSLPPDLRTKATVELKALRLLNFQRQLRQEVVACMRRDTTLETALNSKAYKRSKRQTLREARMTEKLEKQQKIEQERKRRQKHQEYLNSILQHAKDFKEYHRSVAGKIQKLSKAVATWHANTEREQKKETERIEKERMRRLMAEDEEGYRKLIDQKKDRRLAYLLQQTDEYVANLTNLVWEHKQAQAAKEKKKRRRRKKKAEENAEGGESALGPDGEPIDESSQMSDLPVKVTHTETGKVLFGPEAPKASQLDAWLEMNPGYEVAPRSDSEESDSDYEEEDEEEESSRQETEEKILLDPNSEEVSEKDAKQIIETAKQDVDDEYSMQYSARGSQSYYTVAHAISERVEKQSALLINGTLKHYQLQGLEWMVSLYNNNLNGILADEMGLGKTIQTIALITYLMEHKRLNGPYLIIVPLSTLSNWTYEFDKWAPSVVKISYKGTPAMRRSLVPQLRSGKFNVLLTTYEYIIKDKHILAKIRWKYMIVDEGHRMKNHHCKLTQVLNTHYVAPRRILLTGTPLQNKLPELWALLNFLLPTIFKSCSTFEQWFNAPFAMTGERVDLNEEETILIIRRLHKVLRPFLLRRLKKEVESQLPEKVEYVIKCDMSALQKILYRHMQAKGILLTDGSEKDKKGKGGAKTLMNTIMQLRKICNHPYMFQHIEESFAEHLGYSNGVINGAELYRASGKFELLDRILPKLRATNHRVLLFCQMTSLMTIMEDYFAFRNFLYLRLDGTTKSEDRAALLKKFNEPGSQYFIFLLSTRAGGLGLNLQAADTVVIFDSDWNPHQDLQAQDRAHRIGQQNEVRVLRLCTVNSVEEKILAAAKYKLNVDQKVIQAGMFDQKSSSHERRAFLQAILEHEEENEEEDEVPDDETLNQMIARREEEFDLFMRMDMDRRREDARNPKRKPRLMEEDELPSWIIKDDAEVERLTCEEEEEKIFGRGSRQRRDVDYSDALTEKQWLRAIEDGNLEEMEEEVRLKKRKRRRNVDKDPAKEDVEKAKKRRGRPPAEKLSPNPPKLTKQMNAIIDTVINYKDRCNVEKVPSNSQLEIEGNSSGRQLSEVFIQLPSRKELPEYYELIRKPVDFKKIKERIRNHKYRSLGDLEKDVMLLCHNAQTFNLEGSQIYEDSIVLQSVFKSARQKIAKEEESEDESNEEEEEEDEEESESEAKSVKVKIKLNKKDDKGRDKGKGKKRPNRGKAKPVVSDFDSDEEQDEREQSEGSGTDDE
T1 sequence (P51532 whole entry): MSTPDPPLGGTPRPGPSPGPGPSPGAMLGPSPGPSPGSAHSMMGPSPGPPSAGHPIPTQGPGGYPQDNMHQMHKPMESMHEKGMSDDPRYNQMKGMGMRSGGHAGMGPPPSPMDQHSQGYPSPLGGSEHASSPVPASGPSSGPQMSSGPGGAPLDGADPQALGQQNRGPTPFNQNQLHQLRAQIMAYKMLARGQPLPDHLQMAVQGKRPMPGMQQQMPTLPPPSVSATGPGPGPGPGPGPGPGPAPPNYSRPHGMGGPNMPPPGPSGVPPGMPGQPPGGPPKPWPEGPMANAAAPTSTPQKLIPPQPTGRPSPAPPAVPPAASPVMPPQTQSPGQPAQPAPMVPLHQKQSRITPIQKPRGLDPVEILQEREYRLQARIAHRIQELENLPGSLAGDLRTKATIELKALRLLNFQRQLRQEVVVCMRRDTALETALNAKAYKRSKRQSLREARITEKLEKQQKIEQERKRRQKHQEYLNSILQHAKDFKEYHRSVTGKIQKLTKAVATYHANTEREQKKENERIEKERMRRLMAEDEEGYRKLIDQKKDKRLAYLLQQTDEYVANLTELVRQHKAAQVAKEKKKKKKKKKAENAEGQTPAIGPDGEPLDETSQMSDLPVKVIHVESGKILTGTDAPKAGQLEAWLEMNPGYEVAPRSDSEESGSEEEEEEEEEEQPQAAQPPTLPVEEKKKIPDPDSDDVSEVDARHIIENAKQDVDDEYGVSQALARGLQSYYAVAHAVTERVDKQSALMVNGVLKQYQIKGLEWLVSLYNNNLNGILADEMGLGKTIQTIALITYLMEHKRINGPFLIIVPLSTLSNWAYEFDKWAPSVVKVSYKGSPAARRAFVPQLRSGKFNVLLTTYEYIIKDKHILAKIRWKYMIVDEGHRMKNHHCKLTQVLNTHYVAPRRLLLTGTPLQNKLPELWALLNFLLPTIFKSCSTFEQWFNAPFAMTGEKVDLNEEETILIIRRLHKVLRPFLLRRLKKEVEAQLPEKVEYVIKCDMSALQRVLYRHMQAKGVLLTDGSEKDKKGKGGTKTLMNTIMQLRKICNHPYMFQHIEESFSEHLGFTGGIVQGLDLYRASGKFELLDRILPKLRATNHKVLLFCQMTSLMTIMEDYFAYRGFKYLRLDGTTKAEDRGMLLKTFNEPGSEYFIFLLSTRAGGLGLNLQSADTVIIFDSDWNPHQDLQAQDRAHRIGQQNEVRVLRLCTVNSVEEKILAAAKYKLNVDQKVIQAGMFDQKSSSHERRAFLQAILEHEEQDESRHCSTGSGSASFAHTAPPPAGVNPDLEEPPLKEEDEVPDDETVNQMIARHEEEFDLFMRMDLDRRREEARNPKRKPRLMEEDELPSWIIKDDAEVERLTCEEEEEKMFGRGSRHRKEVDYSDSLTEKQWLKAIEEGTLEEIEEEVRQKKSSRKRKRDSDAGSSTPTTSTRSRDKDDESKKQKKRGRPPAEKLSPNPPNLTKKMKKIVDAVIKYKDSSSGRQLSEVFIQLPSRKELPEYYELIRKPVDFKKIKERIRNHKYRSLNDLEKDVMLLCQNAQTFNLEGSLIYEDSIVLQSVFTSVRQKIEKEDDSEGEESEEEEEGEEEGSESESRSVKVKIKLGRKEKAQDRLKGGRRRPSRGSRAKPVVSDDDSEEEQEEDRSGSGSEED

In the case of `Cc1cc(-c2cccc(-c3csc(NC(=O)CNC(=O)c4cn(S(C)(=O)=O)c5c4CCCC5)n3)c2)cc(C)n1` [Compound 35, N-(2-((4-(3-(2,6-dimethylpyridin-4-yl)phenyl)thiazol-2-yl)amino)-2-oxoethyl)-1-(methylsulfonyl)-4,5,6,7-tetrahydro-1H-indole-3-carboxamide], in assay [1], the IC50 was 0.1 to 1 µM and the Emax was above 80%. Besides, in assay [2], the “BRM Max % Inhibition” value is on record as above 95% and the IC50 was below 0.1 µM.
Take `CC(C)S(=O)(=O)n1cc(C(=O)NCC(=O)Nc2nc(-c3cccc(N4C[C@@H](C)O[C@@H](C)C4)c3)cs2)cc1Cl` [Compound 36]: in assay [1], the IC50 was in the range of 1 to 5 µM and the Emax was above 60%. Besides, in assay [2], the “BRM Max % Inhibition” value is recorded as above 90% and the IC50 was 0.1 to 1 µM.
The like results for `CC(C)S(=O)(=O)n1cc(C(=O)NCC(=O)Nc2nc(-c3cccc(N4C[C@@H](C)O[C@@H](C)C4)n3)cs2)cc1Cl` [Compound 37, 5-chloro-N-(2-((4-(6-((cis)-2,6-dimethylmorpholino)pyridin-2-yl)thiazol-2-yl)amino)-2-oxoethyl)-1-(isopropylsulfonyl)-1H-pyrrole-3-carboxamide] were, in that order, 1 to 5 µM, above 40%, above 80% and 0.1 to 1 µM.
The like results for `Cc1cc(C(=O)NCC(=O)Nc2nc(-c3cccc(N4C[C@@H](C)O[C@@H](C)C4)n3)cs2)cn1S(=O)(=O)C(C)C` [Compound 38, N-(2-((4-(6-((cis)-2,6-dimethylmorpholino)pyridin-2-yl)thiazol-2-yl)amino)-2-oxoethyl)-1-(isopropylsulfonyl)-5-methyl-1H-pyrrole-3-carboxamide] were, in that order, 1 to 5 µM, above 70%, above 95% and 0.1 to 1 µM.
For `CS(=O)(=O)n1cc(C(=O)NCC(=O)Nc2nc(-c3cccc(N4CCC(O)CC4)c3)cs2)c2ccccc21` [Compound 39, N-(2-((4-(3-(4-hydroxypiperidin-1-yl)phenyl)thiazol-2-yl)amino)-2-oxoethyl)-1-(methylsulfonyl)-1H-indole-3-carboxamide], in assay [1], the IC50 is 1 to 5 µM and the Emax was below 30%. Further, in assay [2], the “BRM Max % Inhibition” value is above 80% and the IC50 lay within 0.1 to 1 µM.
As for `CC(C)S(=O)(=O)n1cc(C(=O)NCC(=O)Nc2nc(-c3cccc(N4CCC(O)CC4)c3)cs2)cc1Cl` [Compound 40, 5-chloro-N-(2-((4-(3-(4-hydroxypiperidin-1-yl)phenyl)thiazol-2-yl)amino)-2-oxoethyl)-1-(isopropylsulfonyl)-1H-pyrrole-3-carboxamide], in assay [1], the IC50 fell in the range of 1 to 5 µM and the Emax was above 50%. In addition, in assay [2], the “BRM Max % Inhibition” value is above 80% and the IC50 is 0.1 to 1 µM.
`Cc1nccc(-c2cccc(-c3csc(NC(=O)CNC(=O)c4cc(Cl)n(S(=O)(=O)C(C)C)c4)n3)c2)n1` [Compound 41, 5-chloro-1-isopropylsulfonyl-N-[2-[[4-[3-(2-methylpyrimidin-4-yl)phenyl]thiazol-2-yl]amino]-2-oxo-ethyl]pyrrole-3-carboxamide]: in assay [1], the IC50 lay within 0.1 to 1 µM and the Emax is above 90%. Moreover, in assay [2], the “BRM Max % Inhibition” value is given as above 95% and the IC50 is below 0.1 µM.
Consider `Cc1c(C(=O)NCC(=O)Nc2nc(-c3cccc(N4C[C@@H](C)O[C@@H](C)C4)c3)cs2)cnn1C(C)(C)C` [Compound 42, 1-(tert-butyl)-N-(2-((4-(3-((2R,6S)-2,6-dimethylmorpholino)phenyl)thiazol-2-yl)amino)-2-oxoethyl)-5-methyl-1H-pyrazole-4-carboxamide], for which the IC50 in assay [1] and in assay [2] was 0.1 to 1 µM throughout.
`C[C@@H]1CN(c2cccc(-c3csc(NC(=O)CNC(=O)c4cnn(C(C)(C)C)c4Cl)n3)c2)C[C@H](C)O1` [Compound 43, 1-(tert-butyl)-5-chloro-N-(2-((4-(3-((2R,6S)-2,6-dimethylmorpholino)phenyl)thiazol-2-yl)amino)-2-oxoethyl)-1H-pyrazole-4-carboxamide]: the results for the IC50 in assay [1] and in assay [2] were 0.1 to 1 µM and below 0.1 µM, respectively.

Values taken from US12509453B2, “BRM/BRG1 inhibitors and uses thereof” (Foghorn Therapeutics Inc., priority 2019, dated 2025).
